Consider three compounds from paper PMC7229842, “Molecular basis of the multifaceted functions of human leucyl-tRNA synthetase in protein synthesis and beyond” (Nucleic Acids Research, 2020).

Test [1] has as its target T1, Human cytosolic leucyl-tRNA synthetase (hcLRS) (Homo sapiens, UniProt Q9P2J5).
T1 construct: gene LARS1
The test is described as follows: X-ray co-crystal structure, […] Å. In kind it is binding.
Target sequence in this assay (Q9P2J5 1-1070): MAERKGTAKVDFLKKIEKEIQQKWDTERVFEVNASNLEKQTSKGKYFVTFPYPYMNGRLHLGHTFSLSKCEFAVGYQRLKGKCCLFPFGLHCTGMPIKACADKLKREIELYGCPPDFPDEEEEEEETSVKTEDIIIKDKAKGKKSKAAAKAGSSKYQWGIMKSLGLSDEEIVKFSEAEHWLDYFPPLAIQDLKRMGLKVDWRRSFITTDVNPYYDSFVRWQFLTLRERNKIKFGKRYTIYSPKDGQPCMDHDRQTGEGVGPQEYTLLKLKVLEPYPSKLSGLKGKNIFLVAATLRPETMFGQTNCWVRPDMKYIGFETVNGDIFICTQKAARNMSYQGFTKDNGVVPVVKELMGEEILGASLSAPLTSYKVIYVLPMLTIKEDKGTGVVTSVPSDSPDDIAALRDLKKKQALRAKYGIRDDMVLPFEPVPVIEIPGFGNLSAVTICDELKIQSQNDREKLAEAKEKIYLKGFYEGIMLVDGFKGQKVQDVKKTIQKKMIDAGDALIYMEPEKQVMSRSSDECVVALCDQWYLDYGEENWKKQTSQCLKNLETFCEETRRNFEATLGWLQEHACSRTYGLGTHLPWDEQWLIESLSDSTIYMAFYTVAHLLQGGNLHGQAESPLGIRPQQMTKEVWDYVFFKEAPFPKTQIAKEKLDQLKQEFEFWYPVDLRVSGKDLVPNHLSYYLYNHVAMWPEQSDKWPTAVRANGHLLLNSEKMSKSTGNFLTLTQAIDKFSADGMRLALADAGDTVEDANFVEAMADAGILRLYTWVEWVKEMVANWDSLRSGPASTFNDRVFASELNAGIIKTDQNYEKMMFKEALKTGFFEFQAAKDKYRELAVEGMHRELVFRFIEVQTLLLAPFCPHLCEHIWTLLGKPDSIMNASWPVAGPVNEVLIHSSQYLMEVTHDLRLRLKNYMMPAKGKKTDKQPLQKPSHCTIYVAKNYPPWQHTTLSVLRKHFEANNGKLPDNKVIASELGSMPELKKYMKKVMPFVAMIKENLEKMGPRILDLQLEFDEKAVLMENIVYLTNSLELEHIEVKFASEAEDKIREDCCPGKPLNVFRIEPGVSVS

The target of test [2] is T1, Human cytosolic leucyl-tRNA synthetase (hcLRS). The test is described as follows: aminoacylation assay with [3H]-Leu and tRNA^Leu(CAG), purified hcLRS. In kind it is biochemical.
Target sequence in this assay (Q9P2J5 whole entry): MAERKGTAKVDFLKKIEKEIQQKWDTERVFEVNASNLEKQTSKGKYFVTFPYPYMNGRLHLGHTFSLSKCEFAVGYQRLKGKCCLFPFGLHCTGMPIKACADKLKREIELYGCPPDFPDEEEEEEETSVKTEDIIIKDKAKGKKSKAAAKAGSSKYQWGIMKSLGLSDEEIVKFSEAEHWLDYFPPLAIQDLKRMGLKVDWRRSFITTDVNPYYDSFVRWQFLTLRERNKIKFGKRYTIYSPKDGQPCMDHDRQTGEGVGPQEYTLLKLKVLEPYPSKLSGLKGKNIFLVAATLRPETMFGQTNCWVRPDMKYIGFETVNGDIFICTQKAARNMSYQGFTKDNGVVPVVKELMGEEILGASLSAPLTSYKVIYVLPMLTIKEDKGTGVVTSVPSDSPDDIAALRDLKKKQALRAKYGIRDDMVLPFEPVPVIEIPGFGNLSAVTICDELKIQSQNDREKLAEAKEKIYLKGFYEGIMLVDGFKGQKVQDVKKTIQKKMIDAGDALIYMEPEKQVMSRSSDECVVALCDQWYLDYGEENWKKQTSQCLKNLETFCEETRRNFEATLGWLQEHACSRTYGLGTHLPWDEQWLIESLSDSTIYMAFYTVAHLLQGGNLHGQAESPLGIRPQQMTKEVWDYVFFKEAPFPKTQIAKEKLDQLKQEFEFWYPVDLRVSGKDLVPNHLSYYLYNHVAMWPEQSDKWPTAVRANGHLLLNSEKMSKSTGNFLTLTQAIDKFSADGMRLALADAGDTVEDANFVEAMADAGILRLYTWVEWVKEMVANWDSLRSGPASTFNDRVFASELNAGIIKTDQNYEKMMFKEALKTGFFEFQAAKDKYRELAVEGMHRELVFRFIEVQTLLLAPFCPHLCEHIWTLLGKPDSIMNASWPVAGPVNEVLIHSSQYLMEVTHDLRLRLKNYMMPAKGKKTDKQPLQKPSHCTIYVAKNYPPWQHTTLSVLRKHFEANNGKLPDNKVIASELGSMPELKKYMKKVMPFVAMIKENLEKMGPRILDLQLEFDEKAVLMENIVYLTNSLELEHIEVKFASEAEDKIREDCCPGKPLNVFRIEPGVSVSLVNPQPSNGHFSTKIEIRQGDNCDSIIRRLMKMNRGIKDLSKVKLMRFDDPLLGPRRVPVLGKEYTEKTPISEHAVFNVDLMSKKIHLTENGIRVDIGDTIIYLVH
Test [3] shares this target. As to the kind of experiment: X-ray co-crystal structure at […] Å (as AN6426-AMP); aminoacylation inhibition IC50. In kind it is biochemical.
Target sequence in this assay (Q9P2J5 whole entry): as above

For `CC(C)C[C@H](N)C(=O)NS(=O)(=O)OC[C@H]1O[C@@H](n2cnc3c(N)ncnc32)[C@H](O)[C@@H]1O` [LeuAMS], the “X-ray co-crystal structure, 2.5 Å” value in test [1] is given as “LeuAMS, a stable analog of LeuAMP, was bound in the aminoacylation active site in our structure”.

The term IC50 denotes the concentration at which inhibition is half-maximal. A low value points to inhibition by little substance. In the case of `OB1OCc2cc(F)ccc21` [tavaborole], in test [2], half-maximal inhibition (IC50) was put at 14.8 µM.

As to `CCOc1ccc(Cl)c2c1B(O)OC2CN` (stereo not drawn) [AN6426], the IC50 in test [3] is 7.7 µM.
